Laboratory results from article PMC5218480 (PLoS ONE, 2017).

Test system: MV-4-11 cells
Experiment: Gene expression microarray analysis (Affymetrix PrimeView) and GSEA
Format: cell-based, human
Set-up: RFU PODN (11730768_x_at) / Fold change /veh PODN (11730768_x_at) / RFU LINC00158 (11744669_a_at) / Fold change /veh LINC00158 (11744669_a_at) / RFU DUSP10 (11751237_a_at) / Fold change /veh DUSP10 (11751237_a_at) / RFU ID3 (11757404_x_at) / Fold change /veh ID3 (11757404_x_at) / RFU PLEKHG5 (11737974_s_at) / Fold change /veh PLEKHG5 (11737974_s_at) / RFU LRRC4B (11730491_at) / Fold change /veh LRRC4B (11730491_at) / RFU GIMAP4 (11747438_a_at) / Fold change /veh GIMAP4 (11747438_a_at) / RFU KRT8 (11758183_x_at) / Fold change /veh KRT8 (11758183_x_at) / RFU CNN1 (11734310_a_at) / Fold change /veh CNN1 (11734310_a_at) / RFU VPS37D (11726825_at) / Fold change /veh VPS37D (11726825_at) / RFU C10orf10 (11716522_x_at) / Fold change /veh C10orf10 (11716522_x_at) / RFU KIR2DL2 /// KIR2DL4 /// KIR2DL5A /// KIR2DL5B /// KIR2DS1 /// KIR2DS2 /// KIR2DS3 /// KIR2DS4 /// KIR3DL3 /// KIR3DL3 /// KIR3DS1 (11738374_at) / Fold change /veh KIR2DL2 /// KIR2DL4 /// KIR2DL5A /// KIR2DL5B /// KIR2DS1 /// KIR2DS2 /// KIR2DS3 /// KIR2DS4 /// KIR3DL3 /// KIR3DL3 /// KIR3DS1 (11738374_at) / RFU C1QL1 (11718748_at) / Fold change /veh C1QL1 (11718748_at) / RFU TMPRSS4 (11747572_a_at) / Fold change /veh TMPRSS4 (11747572_a_at) / RFU HAMP (11756126_x_at) / Fold change /veh HAMP (11756126_x_at) / RFU RNFT2 (11725882_a_at) / Fold change /veh RNFT2 (11725882_a_at) / RFU NR4A2 (11747474_a_at) / Fold change /veh NR4A2 (11747474_a_at) / RFU ABCC12 (11746883_a_at) / Fold change /veh ABCC12 (11746883_a_at) / RFU TMEM136 (11760407_x_at) / Fold change /veh TMEM136 (11760407_x_at) / RFU CLDN22 /// WWC2 (11732394_at) / Fold change /veh CLDN22 /// WWC2 (11732394_at) / RFU HLA-DPB1 (11760878_x_at) / Fold change /veh HLA-DPB1 (11760878_x_at) / RFU SPINT1 (11716480_a_at) / Fold change /veh SPINT1 (11716480_a_at) / RFU GAP43 (11754022_s_at) / Fold change /veh GAP43 (11754022_s_at) / RFU A4GNT (11735810_at) / Fold change /veh A4GNT (11735810_at) / RFU PRB3 (11715151_x_at) / Fold change /veh PRB3 (11715151_x_at) / RFU TUBB4B (11761932_at) / Fold change /veh TUBB4B (11761932_at) / RFU CAPN14 (11732068_a_at) / Fold change /veh CAPN14 (11732068_a_at) / RFU TMCC2 (11721928_a_at) / Fold change /veh TMCC2 (11721928_a_at) / RFU IRGQ (11745062_a_at) / Fold change /veh IRGQ (11745062_a_at) / RFU FAM174B (11720279_a_at) / Fold change /veh FAM174B (11720279_a_at) / RFU TMPRSS4 (11748680_a_at) / Fold change /veh TMPRSS4 (11748680_a_at) / RFU FAM212B (11763350_a_at) / Fold change /veh FAM212B (11763350_a_at) / RFU PLEKHG5 (11743358_a_at) / Fold change /veh PLEKHG5 (11743358_a_at) / RFU ZSCAN30 (11745921_a_at) / Fold change /veh ZSCAN30 (11745921_a_at) / RFU CMKLR1 (11741424_a_at) / Fold change /veh CMKLR1 (11741424_a_at) / RFU LOC101060620 /// MAPK8IP1 (11723275_at) / Fold change /veh LOC101060620 /// MAPK8IP1 (11723275_at) / RFU SPTSSB (11747773_x_at) / Fold change /veh SPTSSB (11747773_x_at) / RFU PRSS12 (11739890_at) / Fold change /veh PRSS12 (11739890_at) / RFU BIN1 (11741810_x_at) / Fold change /veh BIN1 (11741810_x_at) / RFU WNT11 (11732464_a_at) / Fold change /veh WNT11 (11732464_a_at) / RFU C10orf10 (11716521_a_at) / Fold change /veh C10orf10 (11716521_a_at) / RFU C5orf56 (11738089_at) / Fold change /veh C5orf56 (11738089_at) / RFU CYB561 (11721691_x_at) / Fold change /veh CYB561 (11721691_x_at) / RFU ANKRD19P (11752326_a_at) / Fold change /veh ANKRD19P (11752326_a_at) / RFU OR2T12 /// OR2T33 /// OR2T8 (11738714_s_at) / Fold change /veh OR2T12 /// OR2T33 /// OR2T8 (11738714_s_at) / RFU VCAN (11748164_a_at) / Fold change /veh VCAN (11748164_a_at) / RFU JSRP1 (11732532_at) / Fold change /veh JSRP1 (11732532_at) / RFU KRTAP10-11 (11738290_x_at) / Fold change /veh KRTAP10-11 (11738290_x_at) / RFU MYO3A (11730013_a_at) / Fold change /veh MYO3A (11730013_a_at) / RFU EBF3 (11725865_a_at) / Fold change /veh EBF3 (11725865_a_at) / RFU CAMK2N1 (11719241_x_at) / Fold change /veh CAMK2N1 (11719241_x_at) / RFU C5orf56 (11738088_a_at) / Fold change /veh C5orf56 (11738088_a_at) / RFU OLFML3 (11715873_a_at) / Fold change /veh OLFML3 (11715873_a_at) / RFU LOC100653217 /// NTM (11731650_a_at) / Fold change /veh LOC100653217 /// NTM (11731650_a_at) / RFU MAPK11 (11762145_a_at) / Fold change /veh MAPK11 (11762145_a_at) / RFU FIZ1 (11724087_x_at) / Fold change /veh FIZ1 (11724087_x_at) / RFU OASL (11726364_x_at) / Fold change /veh OASL (11726364_x_at) / RFU SOX15 (11748057_x_at) / Fold change /veh SOX15 (11748057_x_at) / RFU CD79A (11719716_a_at) / Fold change /veh CD79A (11719716_a_at) / RFU HIST1H1D (11736915_at) / Fold change /veh HIST1H1D (11736915_at) / RFU CASKIN2 (11723855_a_at) / Fold change /veh CASKIN2 (11723855_a_at) / RFU LOC730098 (11760151_x_at) / Fold change /veh LOC730098 (11760151_x_at) / RFU OR4N2 (11742367_at) / Fold change /veh OR4N2 (11742367_at) / RFU PRRT2 (11749266_a_at) / Fold change /veh PRRT2 (11749266_a_at) / RFU SNX32 (11753110_a_at) / Fold change /veh SNX32 (11753110_a_at) / RFU CDHR5 (11726645_a_at) / Fold change /veh CDHR5 (11726645_a_at) / RFU RCAN1 (11760418_a_at) / Fold change /veh RCAN1 (11760418_a_at) / RFU FAM167A (11723789_a_at) / Fold change /veh FAM167A (11723789_a_at) / RFU FAM26E (11764081_at) / Fold change /veh FAM26E (11764081_at) / RFU ISYNA1 (11749810_s_at) / Fold change /veh ISYNA1 (11749810_s_at) / RFU ACY1 (11761880_at) / Fold change /veh ACY1 (11761880_at) / RFU 11764098_at / Fold change /veh 11764098_at / RFU SAMD14 (11745864_x_at) / Fold change /veh SAMD14 (11745864_x_at) / RFU NPB (11741838_a_at) / Fold change /veh NPB (11741838_a_at) / RFU TMPRSS6 (11731388_a_at) / Fold change /veh TMPRSS6 (11731388_a_at) / RFU KRTAP10-2 (11738614_at) / Fold change /veh KRTAP10-2 (11738614_at) / RFU ARHGAP8 /// PRR5-ARHGAP8 (11727945_x_at) / Fold change /veh ARHGAP8 /// PRR5-ARHGAP8 (11727945_x_at) / RFU KRTAP5-7 /// NADSYN1 (11734609_at) / Fold change /veh KRTAP5-7 /// NADSYN1 (11734609_at) / RFU RASL12 (11751679_a_at) / Fold change /veh RASL12 (11751679_a_at) / RFU CDKN2B (11736163_a_at) / Fold change /veh CDKN2B (11736163_a_at) / RFU PRF1 (11729649_at) / Fold change /veh PRF1 (11729649_at) / RFU, ZNF638 /// ZNF638-IT1 / Fold change vs veh, ZNF638 /// ZNF638-IT1 / RFU, PANK3 / Fold change vs veh, PANK3 / RFU, SH3YL1 / Fold change vs veh, SH3YL1 / RFU, ZEB2 / Fold change vs veh, ZEB2 / RFU, NRIP1 / Fold change vs veh, NRIP1 / RFU, PTTG1IP / Fold change vs veh, PTTG1IP / RFU, CAPN2 / Fold change vs veh, CAPN2 / RFU, MED14 / Fold change vs veh, MED14 / RFU, SNORA58 / Fold change vs veh, SNORA58 / RFU, C1orf63 / Fold change vs veh, C1orf63 / RFU, LRRFIP1 / Fold change vs veh, LRRFIP1 / RFU, NDUFAF7 / Fold change vs veh, NDUFAF7 / RFU, SLC12A2 / Fold change vs veh, SLC12A2 / RFU, IBTK / Fold change vs veh, IBTK / RFU, ESF1 / Fold change vs veh, ESF1 / Fold change vs veh, TMEM50B / RFU, TAOK1 / Fold change vs veh, TAOK1 / RFU, ACBD3 / Fold change vs veh, ACBD3 / RFU, TMA16 / Fold change vs veh, TMA16 / RFU, RWDD3 / Fold change vs veh, RWDD3 / RFU, BCAT1 / Fold change vs veh, BCAT1 / RFU, EDEM3 / Fold change vs veh, EDEM3 / RFU, TMEM33 / Fold change vs veh, TMEM33 / RFU, WDR75 / Fold change vs veh, WDR75 / RFU, AHCTF1 / Fold change vs veh, AHCTF1 / RFU, TFRC / Fold change vs veh, TFRC / RFU, ZDHHC17 / Fold change vs veh, ZDHHC17 / RFU, NOM1 / Fold change vs veh, NOM1 / RFU, ARL8B / Fold change vs veh, ARL8B / RFU, ZBTB11 / Fold change vs veh, ZBTB11 / RFU, TAMM41 / Fold change vs veh, TAMM41 / RFU, KIAA1704 /// LOC100996395 / Fold change vs veh, KIAA1704 /// LOC100996395 / RFU, ING1 / Fold change vs veh, ING1 / RFU, TRMT61B / Fold change vs veh, TRMT61B / RFU, FUBP3 / Fold change vs veh, FUBP3 / RFU, TP53 / Fold change vs veh, TP53 / RFU, TNKS2 / Fold change vs veh, TNKS2 / RFU, ZFP14 / Fold change vs veh, ZFP14 / RFU, ACTR2 / Fold change vs veh, ACTR2 / RFU, PPP3R1 / Fold change vs veh, PPP3R1 / RFU, PIK3R1 / Fold change vs veh, PIK3R1 / RFU, HNRNPA1 / Fold change vs veh, HNRNPA1 / RFU, RNF170 / Fold change vs veh, RNF170 / RFU, ZNF28 / Fold change vs veh, ZNF28 / RFU, RNGTT / Fold change vs veh, RNGTT / RFU, OGT / Fold change vs veh, OGT / RFU, BRD1 / Fold change vs veh, BRD1 / RFU, MARS / Fold change vs veh, MARS / RFU, ZNF655 / Fold change vs veh, ZNF655 / RFU, FAHD1 / Fold change vs veh, FAHD1 / RFU, BDP1 / Fold change vs veh, BDP1 / RFU, LRRCC1 / Fold change vs veh, LRRCC1 / RFU, ARID1A / Fold change vs veh, ARID1A / RFU, ZNF146 / Fold change vs veh, ZNF146 / RFU, ZNF330 / Fold change vs veh, ZNF330 / RFU, GPN3 / Fold change vs veh, GPN3 / RFU, C9orf123 / Fold change vs veh, C9orf123 / RFU, N4BP2L2 / Fold change vs veh, N4BP2L2 / RFU, ARFIP1 / Fold change vs veh, ARFIP1 / RFU, FAM179B / Fold change vs veh, FAM179B / RFU, BCL10 / Fold change vs veh, BCL10 / RFU, UHRF1BP1L / Fold change vs veh, UHRF1BP1L / RFU, BET1 / Fold change vs veh, BET1 / RFU, CNOT2 / Fold change vs veh, CNOT2 / RFU, ZNF268 / Fold change vs veh, ZNF268 / Fold change vs veh, ZNF507 / RFU, DGCR2 / Fold change vs veh, DGCR2 / RFU, WDSUB1 / Fold change vs veh, WDSUB1 / Fold change vs veh, HSP90B1 /// MIR3652 / RFU, ADSS / Fold change vs veh, ADSS / RFU, GK / Fold change vs veh, GK / RFU, ZNF148 / Fold change vs veh, ZNF148 / RFU, TAF9 / Fold change vs veh, TAF9 / RFU, SLC1A5 / Fold change vs veh, SLC1A5 / RFU, SLMO2 / Fold change vs veh, SLMO2 / RFU, ABCC4 / Fold change vs veh, ABCC4 / RFU, LOC101060439 /// RAP1B / Fold change vs veh, LOC101060439 /// RAP1B / RFU, RFX7 / Fold change vs veh, RFX7 / RFU, GTPBP10 / Fold change vs veh, GTPBP10 / RFU, CNEP1R1 / Fold change vs veh, CNEP1R1 / RFU, BIVM-ERCC5 /// ERCC5 / Fold change vs veh, BIVM-ERCC5 /// ERCC5 / RFU, ILF3 / Fold change vs veh, ILF3 / RFU 11762660_at / Fold change /veh 11762660_at / RFU VCAN (11757783_s_at) / Fold change /veh VCAN (11757783_s_at) / RFU DDX43 (11728927_at) / Fold change /veh DDX43 (11728927_at) / RFU KRT8 (11758188_x_at) / Fold change /veh KRT8 (11758188_x_at) / RFU NKD1 (11759106_at) / Fold change /veh NKD1 (11759106_at) / RFU SRD5A1 (11742802_a_at) / Fold change /veh SRD5A1 (11742802_a_at) / RFU TPSAB1 /// TPSB2 (11721975_s_at) / Fold change /veh TPSAB1 /// TPSB2 (11721975_s_at) / RFU GSTM3 (11746129_a_at) / Fold change /veh GSTM3 (11746129_a_at) / RFU IL23R (11737362_x_at) / Fold change /veh IL23R (11737362_x_at) / RFU TMEM51 (11727254_a_at) / Fold change /veh TMEM51 (11727254_a_at) / RFU PIWIL2 (11732686_x_at) / Fold change /veh PIWIL2 (11732686_x_at) / RFU ORM1 (11744905_x_at) / Fold change /veh ORM1 (11744905_x_at) / RFU CCDC152 (11743942_at) / Fold change /veh CCDC152 (11743942_at) / RFU ECM1 (11717891_a_at) / Fold change /veh ECM1 (11717891_a_at) / RFU IL23R (11748794_a_at) / Fold change /veh IL23R (11748794_a_at) / RFU TNFAIP8L3 (11732012_x_at) / Fold change /veh TNFAIP8L3 (11732012_x_at) / RFU MBOAT4 (11741988_at) / Fold change /veh MBOAT4 (11741988_at) / RFU 11764193_at / Fold change /veh 11764193_at / RFU TMEM53 (11763286_at) / Fold change /veh TMEM53 (11763286_at) / RFU MAGEB2 (11727129_at) / Fold change /veh MAGEB2 (11727129_at) / RFU TMEM200A (11744735_a_at) / Fold change /veh TMEM200A (11744735_a_at) / RFU CCDC152 (11751479_a_at) / Fold change /veh CCDC152 (11751479_a_at) / RFU FAM211A (11726209_a_at) / Fold change /veh FAM211A (11726209_a_at) / RFU RGS16 (11746705_a_at) / Fold change /veh RGS16 (11746705_a_at) / RFU VCAN (11755009_s_at) / Fold change /veh VCAN (11755009_s_at) / RFU RHOB (11743442_s_at) / Fold change /veh RHOB (11743442_s_at) / RFU RGS16 (11720943_a_at) / Fold change /veh RGS16 (11720943_a_at) / RFU RGS16 (11720944_at) / Fold change /veh RGS16 (11720944_at) / RFU, VPS4B / Fold change vs veh, VPS4B / RFU, CREB1 / Fold change vs veh, CREB1 / RFU, DNAJC13 / Fold change vs veh, DNAJC13 / RFU, GNAQ / Fold change vs veh, GNAQ / RFU, CDK5R1 / Fold change vs veh, CDK5R1 / RFU, ZRANB3 / Fold change vs veh, ZRANB3 / RFU, CUL4A / Fold change vs veh, CUL4A / RFU, CCNY / Fold change vs veh, CCNY / RFU, UFL1 / Fold change vs veh, UFL1 / RFU, COG3 / Fold change vs veh, COG3 / RFU, DIAPH2 / Fold change vs veh, DIAPH2 / RFU, SKA2 / Fold change vs veh, SKA2 / RFU, AFF3 / Fold change vs veh, AFF3 / RFU, LMF1 / Fold change vs veh, LMF1 / RFU, IPO11 / Fold change vs veh, IPO11 / RFU, DFFB / Fold change vs veh, DFFB / RFU, FOXP1 / Fold change vs veh, FOXP1 / RFU, CARD8 / Fold change vs veh, CARD8 / RFU, STRN3 / Fold change vs veh, STRN3 / RFU, ADK / Fold change vs veh, ADK / RFU, RASSF2 / Fold change vs veh, RASSF2 / RFU, WIPF1 / Fold change vs veh, WIPF1 / RFU, LARP1B / Fold change vs veh, LARP1B / RFU, RASA1 / Fold change vs veh, RASA1 / RFU, RB1 / Fold change vs veh, RB1 / RFU, PPFIA1 / Fold change vs veh, PPFIA1 / RFU, MAT2A / Fold change vs veh, MAT2A / RFU, CCT5 / Fold change vs veh, CCT5 / RFU, WDR92 / Fold change vs veh, WDR92 / RFU, CUX1 / Fold change vs veh, CUX1 / RFU, TTC7A / Fold change vs veh, TTC7A / RFU, TMEM135 / Fold change vs veh, TMEM135 / RFU, DEPTOR / Fold change vs veh, DEPTOR / RFU, CPM / Fold change vs veh, CPM / RFU, DNAJB6 / Fold change vs veh, DNAJB6 / RFU, CACNA2D3 / Fold change vs veh, CACNA2D3 / RFU, DTX4 / Fold change vs veh, DTX4 / RFU, TFCP2 / Fold change vs veh, TFCP2 / RFU, GMCL1 /// GMCL1P1 / Fold change vs veh, GMCL1 /// GMCL1P1 / RFU, AEBP2 / Fold change vs veh, AEBP2 / RFU, SNHG1 /// SNORD22 /// SNORD25 /// SNORD26 /// SNORD27 /// SNORD28 /// SNORD29 /// SNORD31 / Fold change vs veh, SNHG1 /// SNORD22 /// SNORD25 /// SNORD26 /// SNORD27 /// SNORD28 /// SNORD29 /// SNORD31 / Fold change (Aza/veh), C12orf56 (ProbeSet 11735607_a_at) / Fold change (ACY-1035/veh), C12orf56 (ProbeSet 11735607_a_at) / Fold change (Aza/veh), FGFR1OP (ProbeSet 11751329_s_at) / Fold change (ACY-1035/veh), FGFR1OP (ProbeSet 11751329_s_at) / Fold change (Aza/veh), VPS36 (ProbeSet 11739960_a_at) / Fold change (ACY-1035/veh), VPS36 (ProbeSet 11739960_a_at) / RFU SYPL1 (11715823_x_at) / Fold change /veh SYPL1 (11715823_x_at) / RFU IGFBP7 (11715501_s_at) / Fold change /veh IGFBP7 (11715501_s_at) / RFU REEP3 (11722064_at) / Fold change /veh REEP3 (11722064_at) / RFU IGLL1 (11728026_x_at) / Fold change /veh IGLL1 (11728026_x_at): dose or concentration left out as unconfirmed
Conditions: MV-4-11 cells, 48 hours

## Nc1ncn([C@@H]2O[C@H](CO)[C@@H](O)[C@H]2O)c(=O)n1 [azacitidine]
  RFU PRRT2 (11749266_a_at): 42.08 RFU
